Data published in patent publication US9216954B2, “Serine racemase inhibitor” (National University Corporation University of Toyama, priority 2012, dated 2015).

Legend:
[1] = biological target: T1, Recombinant SR (serine racemase) (Homo sapiens, UniProt Q9GZT4); assay: Serine racemase (SR) enzyme activity measurement: L-serine racemization reaction, D-serine quantified via Dsd1/DNP colorimetry; type: biochemical; details: compound 0.3 mM (footnote ‡); value in parentheses = malonic acid (control) in the same run
T1 construct: made in house; host or cells: Escherichia coli
T1 sequence (Q9GZT4 1-340): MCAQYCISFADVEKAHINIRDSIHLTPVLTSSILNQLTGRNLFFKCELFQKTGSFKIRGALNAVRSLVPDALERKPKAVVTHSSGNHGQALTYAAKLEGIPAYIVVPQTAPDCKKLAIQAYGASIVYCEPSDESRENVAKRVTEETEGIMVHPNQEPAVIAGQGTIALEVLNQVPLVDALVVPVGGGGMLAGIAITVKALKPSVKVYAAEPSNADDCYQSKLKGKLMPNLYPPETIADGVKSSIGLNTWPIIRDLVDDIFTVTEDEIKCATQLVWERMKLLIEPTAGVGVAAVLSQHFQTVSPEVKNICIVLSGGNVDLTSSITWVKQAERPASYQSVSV
Procedure: (1) L-Serine Racemization Reaction
(2) Quantitative Determination of D-serine
D-serine was quantitatively determined in accordance with the method proposed by Ito et al. (Analytical Biochemistry, 371: 167-172, 2007).
A solution including 25 μL of 100 mM HEPES (pH: 8.0), 20 μM PLP, and 2 μg of recombinant D-serine dehydratase 1 (Dsd1) was added to 25 μL of the reaction mixture (see (1)), and the mixture was reacted at 30° C. for 30 minutes.
In order to measure pyruvic acid produced from D-serine by Dsd1 using a colorimetric reaction, 50 μL of 0.05% DNP/2M HCl was added to 50 μL of the reaction solution, and the mixture was reacted at 30° C. for 5 minutes. After the addition of 100 μL of ethanol and 125 μL of 10 M NaOH, the mixture was sufficiently mixed, and reacted at room temperature for 10 minutes, and the absorbance at a wavelength of 515 nm was measured using a spectrophotometer.

% human (0. 3 mM) [1] [%]	melting point [°C]	Structure (SMILES)
48	–	O=C(Nc1ccc(Cl)c(Cl)c1)Nc1ccccc1NS(=O)(=O)c1ccc(Br)cc1 [ED-27, 4-Bromo-N-{2-[3-(3,4-dichloro-phenyl)-ureido]-phenyl}-benzenesulfonamide]
58	–	COc1ccc(S(=O)(=O)Nc2ccccc2NC(=O)Nc2ccc(Cl)c(Cl)c2)cc1 [ED-31, N-{2-[3-(3,4-Dichloro-phenyl)-ureido]-phenyl}-4-methoxy-benzenesulfonamide]
46	–	O=C(Nc1ccc(Cl)cc1Cl)Nc1ccccc1NS(=O)(=O)c1ccc(Cl)cc1 [ED-36, 4-Chloro-N-{2-[3-(2,4-dichloro-phenyl)-ureido]-phenyl}-benzenesulfonamide]
48	–	Cc1ccc(/C=C/S(=O)(=O)Nc2ccccc2NC(=O)Nc2ccc(Cl)c(Cl)c2)cc1 [ED-37, 2-p-Tolyl-ethenesulfonic acid {2-[3-(3,4-dichloro-phenyl)-ureido]phenyl}-amide]
–	169 to 170	COc1ccc(NC(=O)CNC(=O)COc2ccc(F)cc2)c(C)c1 [MM-6, 2-(4-Fluoro-phenoxy)-N-[(4-methoxy-2-methyl-phenylcarbamoyl)-methyl]-acetamide]
–	190 to 191	O=C(COc1ccc(F)cc1)NCC(=O)Nc1ccc(I)cc1 [MM-7, 2-(4-Fluoro-phenoxy)-N-[(4-iodo-phenylcarbamoyl)-methyl]-acetamide]
–	213 to 214	O=C(COc1ccc(Br)cc1)NCC(=O)Nc1ccc(F)cc1 [MM-8, 2-(4-Bromo-phenoxy)-N-[(4-fluoro-phenylcarbamoyl)-methyl]-acetamide]
–	202 to 203	O=C(COc1ccc(F)cc1)NCC(=O)Nc1ccc(F)cc1 [MM-9, 2-(4-Fluoro-phenoxy)-N-[(4-fluoro-phenylcarbamoyl)-methyl]-acetamide]
–	192 to 193	O=C(COc1ccc(F)cc1)NCC(=O)Nc1ccc(Br)cc1 [MM-10, N-[(4-Bromo-phenylcarbamoyl)-methyl]-2-(4-fluoro-phenoxy)-acetamide]
–	190 to 191	COc1ccc(NC(=O)CNC(=O)COc2ccc(Br)cc2)cc1 [MM-11, 2-(4-Bromo-phenoxy)-N-[(4-methoxy-phenylcarbamoyl)-methyl]acetamide]
–	185 to 186	COc1ccc(NC(=O)CNC(=O)COc2ccc(F)cc2)cc1 [MM-12, 2-(4-Fluoro-phenoxy)-N-[(4-methoxy-phenylcarbamoyl)-methyl]-acetamide]
–	184 to 185	O=C(COc1ccc(F)cc1)NCC(=O)NC1CCCCC1 [MM-14, N-Cyclohexylcarbamoylmethyl-2-(4-fluoro-phenoxy)-acetamide]
–	173 to 174	O=C(COc1ccc(Br)cc1)NCC(=O)Nc1c(F)cccc1F [MM-15, 2-(4-Bromo-phenoxy)-N-[(2,6-difluoro-phenylcarbamoyl)-methyl]-acetamide]
–	195 to 196	O=C(CNC(=O)COc1ccc(Br)cc1)NCc1ccccc1 [MM-16, N-(Benzylcarbamoyl-methyl)-2-(4-bromo-phenoxy)-acetamide]
–	165 to 166	O=C(CNC(=O)COc1ccc(F)cc1)NCc1ccccc1 [MM-17, N-(Benzylcarbamoyl-methyl)-2-(4-fluoro-phenoxy)-acetamide]
–	143 to 144	COc1ccc(OCC(=O)NCC(=O)Nc2ccc(OC)cc2C)cc1 [MM-18, N-[(4-Methoxy-2-methyl-phenylcarbamoyl)-methyl]-2-(4-methoxy-phenoxy)-acetamide]
–	115 to 116	COc1cccc(OCC(=O)NCC(=O)Nc2ccc(OC)cc2C)c1 [MM-19, N-[(4-Methoxy-2-methyl-phenylcarbamoyl)-methyl]-2-(3-methoxy-phenoxy)-acetamide]
–	184 to 185	O=C(COc1ccc(Cl)cc1)NCC(=O)Nc1c(F)cccc1F [MM-20, 2-(4-Chloro-phenoxy)-N-[(2,6-difluoro-phenylcarbamoyl)-methyl]acetamide]

% human (0. 3 mM) [1] [%]	melting point [°C]	Structure (SMILES)
–	164 to 165	O=C(COc1ccc(Oc2ccccc2)cc1)NCC(=O)Nc1c(F)cccc1F [MM-21, N-[(2,6-Difluoro-phenylcarbamoyl)-methyl]-2-(4-phenoxy-phenoxy)-acetamide]
–	161 to 162	Cc1cccc(OCC(=O)NCC(=O)Nc2c(F)cccc2F)c1 [MM-22, N-[(2,6-Difluoro-phenylcarbamoyl)-methyl]-2-m-tolyloxy-acetamide]
–	164 to 165	COc1ccc(OCC(=O)NCC(=O)Nc2c(F)cccc2F)cc1 [MM-23, N-[(2,6-Difluoro-phenylcarbamoyl)-methyl]-2-(4-methoxy-phenoxy)-acetamide]
–	194 to 195	O=C(COc1ccc(F)cc1)NCC(=O)Nc1c(F)cccc1F [MM-24, N-[(2,6-Difluoro-phenylcarbamoyl)-methyl]-2-(4-fluoro-phenoxy)-acetamide]
–	174 to 175	O=C(COc1ccc(Br)cc1)NCC(=S)Nc1c(F)cccc1F [MM-25, 2-(4-Bromo-phenoxy)-N-[(2,6-difluoro-phenylthiocarbamoyl)-methyl]-acetamide]
–	160 to 161	COc1ccc(OCC(=O)NCC(=S)Nc2c(F)cccc2F)cc1 [MM-26, N-[(2,6-Difluoro-phenylthiocarbamoyl)-methyl]-2-(4-methoxy-phenoxy)-acetamide]
–	174 to 175	Cc1ccccc1CNC(=O)CNC(=O)COc1ccc(Br)cc1 [MM-27, 2-(4-Bromo-phenoxy)-N-[(2-methyl-benzylcarbamoyl)-methyl]-acetamide]
–	208 to 209	O=C(CNC(=O)COc1ccc(Br)cc1)NCc1ccc(Br)cc1 [MM-28, N-[(4-Bromo-benzylcarbamoyl)-methyl]-2-(4-bromo-phenoxy)-acetamide]
–	179 to 180	O=C(CNC(=O)COc1ccc(Br)cc1)NCc1ccc(Br)cc1F [MM-29, N-[(4-Bromo-2-fluoro-benzylcarbamoyl)-methyl]-2-(4-bromo-phenoxy)-acetamide]
–	174 to 175	COc1ccc(OCC(=O)NCC(=O)Nc2cccc(Br)c2)cc1 [MM-31, N-[(3-Bromo-phenylcarbamoyl)-methyl]-2-(4-methoxy-phenoxy)-acetamide]
–	205 to 206	O=C(COc1ccc(Br)cc1)NCC(=O)Nc1cccc(Cl)c1 [MM-32, 2-(4-Bromo-phenoxy)-N-[(3-chloro-phenylcarbamoyl)-methyl]-acetamide]
–	197 to 198	O=C(COc1ccc(Br)cc1)NCC(=O)Nc1cccc([N+](=O)[O-])c1 [MM-33, 2-(4-Bromo-phenoxy)-N-[(3-nitro-phenylcarbamoyl)-methyl]-acetamide]
–	145 to 146	O=C(COc1ccc(OCc2ccccc2)cc1)NCC(=O)Nc1c(F)cccc1F [MM-34, 2-(4-Benzyloxy-phenoxy)-N-[(2,6-difluoro-phenylcarbamoyl)-methyl]-acetamide]
–	197 to 198	O=C(COc1ccc(O)cc1)NCC(=O)Nc1c(F)cccc1F [MM-35, N-[(2,6-difluorophenylcarbamoyl)methyl]-2-(4-hydroxyphenoxy)acetamide]
–	192 to 193	Cc1cccc(OCC(=O)NCC(=O)Nc2ccc(I)cc2)c1 [MM-36, N-[(4-Iodo-phenylcarbamoyl)-methyl]-2-m-tolyloxy-acetamide]
–	186 to 187	Cc1cccc(OCC(=O)NCC(=O)Nc2ccc(O)cc2)c1 [MM-37, N-[(4-hydroxyphenylcarbamoyl)methyl]-2-m-tolyloxyacetamide]
51	–	O=C(O)CC(=O)O [malonic acid, reference compound]
